Test results taken from patent US20110160121A1, “UNACYLATED GHRELIN AND ANALOGS AS THERAPEUTIC AGENTS FOR VASCULAR REMODELING IN DIABETIC PATIENTS AND TREATMENT OF CARDIOVASCULAR DISEASE” (ALIZE PHARMA SAS, priority 2008, published 2011).
Where no end group is shown, it is not given here.

What was measured:
[1] = test system: CAC; assay: CAC cell-cycle progression (percentage of cells in S phase, FACS); assay type: cell-based, human; details: cultured CAC; effect still evident after 7 days of culture; FIG. 1A
Description: First, cell-cycle progression in response to UAG and AG was evaluated. […] To investigate whether this effect relies on inhibition of baseline ROS production, DCF-DA assay was performed. […] H2O2 was used as positive control. AGE-mediated damage signals mainly rely on ROS production (Ref. 29). […] Isolation and Culture of CAC from Peripheral Blood Mononuclear Cells—Peripheral-blood mononuclear cells (PB-MNC) isolated by Fycoll Histopaque 1077 (Sigma) were resuspended in 20% FBS 199 Medium and plated on fibronectin-coated dishes (Biocoat, Becton Dickinson Labware) as described by Hill et al. (Ref. 19). Human UAG studies were performed on CAC recovered from normal donors and diabetic patients. The purity of sorted cells was assessed by FACS analysis (Ref. 20). For experiments, the isolated CAC were cultured under 5% CO2 at 37° C. for 4 days on 20 μg/ml fibronectin-coated dishes in EGM-2 medium containing 10% FBS, hydrocortisone, human Fibroblast Growth Factor, Vascular Endothelial Growth Factor, Insulin Growth Factor 1, ascorbic acid, human Epidermal Growth Factor, gentamicin and amphotericin-B (Cambrex, Walkersville, Md., USA) alone or in combination with 1 μM UAG and 1.2 mg/ml AGE. […] Cell surface molecules were evaluated by flow cytometry as previously described (Ref. 24). Frequency of marker-positive cells is expressed as mean±standard deviation (SD).

[2] = test system: CAC; assay: CAC senescence (acidic beta-gal / SA-beta-gal activity) in cultured CAC; assay type: cell-based, human; details: FIG. 2A
Description: To this end, the effect of AGE treatment, alone or in combination with UAG, was first evaluated on SA-β-gal activity. […] In addition, AGE-induced p53 accumulation and senescent like-growth arrest were prevented by silencing p53 (FIG. 2C).
CAC Senescence—Senescence was evaluated by acidic β-gal activity on CAC recovered from normal subjects cultured in EGM2 medium for 4 days with UAG or AGE+UAG and saline- or UAG-treated diabetic patients (Ref. 22). Briefly, CAC were washed in phosphate-buffered saline, fixed for 3 min at room temperature in 2% paraformaldehyde, washed, and incubated for 24 h at 37° C. with fresh SA-β-gal stain solution: 1 mg/ml 5-bromo-4-chloro-3-indolyl β-D-galactopyranoside (X-gal), 5 mM/liter potassium ferrocyanide, 5 mM/liter ferricyanide, 150 mM/liter NaCl, 2 mM/liter MgCl2, 0.01% sodium deoxycholate, and 0.02% Nonidet P-40. SA-β-gal-positive cells were counted manually by 3 independent investigators.

[3] = test system: CAC; assay: Expansion (S phase) of CAC recovered from treated patients, cultured with IL-3; assay type: in vivo, human; details: cells recovered from treated diabetic patients; FIG. 3C
Description: To confirm their vascular features, the cells recovered from patients and controls were cultured with IL-3; which is able to induce expansion and arterial morphogenesis of CD45^+ cells derived from both peripheral blood and BM (Ref. 28).
Flow Cytometry—To analyze CAC cell-cycle progression, cells recovered from diabetic, healthy subjects, NOD/SCID, ob/ob and wt mice, were cultured in EBM-2 supplemented with IL-3 (10 ng/ml), FACS analysis was performed as previously described (Ref. 20). Cell surface molecules were evaluated by flow cytometry as previously described (Ref. 24). Frequency of marker-positive cells is expressed as mean±standard deviation (SD).

[4] = test system: CAC; assay: Expansion and arterial commitment of CAC recovered from UAG-challenged mice, cultured with IL-3; assay type: in vivo, mouse
Description: After treatment, cells were recovered, assayed by FACS analysis, counted and cultured. […] Black lines refer to preimmune IgG used as negative control and grey lines refer to surface marker expression. Similar results were obtained when CAC from untreated diabetic mice as well as untreated or treated wild-type mice were analyzed (data not shown).
RNA isolation and quantitative real-time PCR—CAC from diabetic patients, healthy subjects and mice treated with UAG or saline were cultured in EGM-2 medium. Human arterial and venous cells were used as a positive controls. mRNA quantification was performed by Q-RT-PCR, as previously described (Ref. 24). The relative expression of Ephrin B2, Notch1, Notch4 and EphB4 were calculated by using comparative threshold cycle methods. The human and murine primer sequences used were described (Refs. 25, 26).
Flow Cytometry—To analyze CAC cell-cycle progression, cells recovered from diabetic, healthy subjects, NOD/SCID, ob/ob and wt mice, were cultured in EBM-2 supplemented with IL-3 (10 ng/ml), FACS analysis was performed as previously described (Ref. 20). Cell surface molecules were evaluated by flow cytometry as previously described (Ref. 24). Frequency of marker-positive cells is expressed as mean±standard deviation (SD). […]

[5] = target: GHSR-1a (Homo sapiens, UniProt Q92847); details: Ref. 7; cited from earlier work
[6] = test system: cardiomyocytes; details: Ref. 8; cited from earlier work
[7] = test system: human arteries; details: Ref. 35; cited from earlier work

Sequence of GHSR-1a (Q92847 whole entry): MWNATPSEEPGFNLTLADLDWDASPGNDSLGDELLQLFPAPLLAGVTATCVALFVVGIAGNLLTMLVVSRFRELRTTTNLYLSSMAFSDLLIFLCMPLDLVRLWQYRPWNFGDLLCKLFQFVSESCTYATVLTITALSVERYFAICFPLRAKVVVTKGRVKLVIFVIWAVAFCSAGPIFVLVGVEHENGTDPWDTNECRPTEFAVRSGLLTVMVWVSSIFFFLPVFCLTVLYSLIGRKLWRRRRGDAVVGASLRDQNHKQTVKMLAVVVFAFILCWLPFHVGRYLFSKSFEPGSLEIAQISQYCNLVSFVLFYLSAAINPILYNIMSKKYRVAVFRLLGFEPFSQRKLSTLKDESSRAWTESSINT

With “1-NH2Gly-Ser-Ser-Phe-Leu-Ser-Pro-Glu-His-Gln-Arg-Val-Gln-Gln-Arg-Lys-Glu-Ser-Lys-Lys-Pro-Pro-Ala-Lys-Leu-Gln-Pro-Arg-28 (H-GSSFLSPEHQRVQQRKESKKPPAKLQPR; ends and bridges not checked; listed as Homo sapiens) [UAG]” the “percentage of cells in S phase” value [1] was “significant increase in the percentage of cells in S phase”, the “number of SA-beta-gal positive cells” value ([2]; UAG added to AGE-cultured CAC) was “significant reduction in the number of SA-β-gal positive cells” and the “number of senescent cells (SA-beta-gal activity)” value ([2]; cultured CAC, UAG alone) was “reduce the number of senescent cells”. The “cell expansion (cells in S phase) with IL-3” value [3] was “underwent cell expansion”, the “arterial commitment of recovered CAC” value ([4]; CAC from UAG-challenged mice cultured in the presence of IL-3, FIG. 4D) was “acquire arterial commitment” and the “expansion of recovered CAC” value ([4]; CAC from UAG-challenged mice, FIG. 4C) was “could be expanded”. The “binding to GHSR-1a” value [5] was “fails to bind GHSR-1a”, the “inhibition of experimentally-induced cell death” value [6] was “inhibit experimentally-induced cell death” and the vasodilator action [7] was “have vasodilator actions in human arteries”.
